# Where a name gives a salt, the structure may show the parent alone. Read-outs that look alike come from different tables or passages of the source.
# Key:
# in vivo = test: in vivo; parameters: species or system mice; conditions: male, C57BL/6J, mouse, 30 mg/kg; for half-life: T1/2 (plasma)
# Description: Adult male C57BL/6J mice (8–9 weeks, 23–27 g) were purchased from the Jackson Laboratory, Bar Harbor, ME, USA. Mice were housed in ventilated cages with controlled temperature and humidity, and a 12 h light/dark cycle. Food and water were available ad libitum, and animals were habituated to the experimental room for three days before the start of the study. All procedures were conducted according to a protocol approved by the Texas Tech University Health Sciences Center Institutional Animal Care and Use Committee (protocol 21039, approved on 26 July 2023). […] Plasma and brain samples were collected 5, 20, 60, 120, and 180 min after the drug administration. […] Mice were deeply anesthetized with isoflurane and decapitated, followed by blood collection in a microtube containing heparin. Plasma was obtained by centrifugation of the microtube for 10 min at 5000× g at 4 °C. The brains were quickly removed and delicately cleansed on filter paper with sterile saline, the surface vasculature was removed using gauze tipped in saline, and the forebrains were quickly frozen using dry ice. Plasma and brain samples were stored at −80 °C until bioanalysis. The brain samples were homogenized at 1:10 (w/v) in LC-MS-grade water using BioSpec Tissue-Tearor Homogenizer. The plasma sample was diluted 10-fold (v/v) in LC-MS-grade water. The plasma samples and brain homogenates were subjected to protein precipitation using ice-cold acetonitrile (1:4 ratio) containing 0.1% formic acid along with the IS (10 ng/mL). The samples underwent continuous vortexing for 5 min, followed by centrifugation at 12,800× g at 4 °C. The resulting clear supernatant was used for injection into the mass spectrometer. LC-MS/MS analysis was conducted using a QTRAP 5500 mass spectrometer (SCIEX, Foster City, CA, USA) connected with a SHIMADZU Prominence LC system (Kyoto, Japan), consisting of an LC-30AD solvent delivery unit, a DGU-20A3R degassing unit, a CTO-30A column oven, and a SIL-30AC autosampler. Chromatographic separation was achieved on an EVO-C18 100Å column (1.7 µm i.d., 50 × 2.1 mm). The mobile phase comprised 0.1% formic acid in water (A) and 0.1% formic acid in acetonitrile (B) at a flow rate of 0.3 mL/min. […] The autosampler and column temperatures were 4 °C and 40 °C, respectively. The injection volume was 2 μL. The mass spectrometric detection of the analytes was executed using multiple reaction monitoring (MRM) with an electrospray ionization (ESI) source in positive ion mode. The conditions were curtain gas, 35 psi; ion spray voltage, 5500 V; temperature, 500 °C; ion source gas 1, 50 psi; and ion source gas 2, 55 psi. […] For milnacipran-d10, which served as the IS, the MH^+ was monitored at m/z 257.2, whereas a fragment at m/z 110.2 was monitored as the product ion. […] Data acquisition and processing were carried out using Sciex Analyst (version 1.7) and MultiQuant software (version 3.0), respectively. The pharmacokinetic parameters were assessed using standard non-compartmental analysis. Microsoft Excel and GraphPad Prism 8.4.3 software were used for calculations and graphical presentation. The apparent first-order terminal rate constant (Kel) with 95% confidence interval (95% CI) was obtained in Prism by linear regression of log-transformed plasma concentration versus time data. The linear trapezoidal model was used for both IV and IP administration to determine area under the curve from time 0 to 3 h (AUC0-3). AUC0-∞ (area under the curve from time 0 to infinity) was obtained by extrapolation to infinity, using the mean concentration at the terminal time point and Kel. The standard errors (SE) of AUC0-3 and AUC0-∞ were calculated applying Bailer’s method for sparse data. Cmax and Tmax values after IP administration are based on actual measurements for the noted sampling time-points. The terminal T1/2 with CI was calculated as 0.693/Kel. […] For the IV route, Vd was calculated using the formula Dose/C0, and clearance (Cl) was determined as Vd*Kel. […]
# [1] = human, in vivo, cited from earlier work
# [2] = human; cited from earlier work
# [3] = cited from earlier work
compound,measurement,setting,value
"CCN(CC)C(=O)C1(c2ccccc2)CC1CN (racemic) [milnacipran, (±)-[1R(S), 2S(R)]-2-(aminomethyl)-N, N-diethyl-1-phenylcyclopropanecarboxamide hydrochloride]",bioavailability,in vivo,92.5%
same,AUC(0-inf),in vivo; ip,11000 ng·h/mL
same,AUC(0-t),in vivo; ip,10300 ng·h/mL
same,Cmax,in vivo; ip,8530 ± 690 ng/mL
same,Kterm (plasma),in vivo; ip,0.016 (0.013 to 0.019) min^−1
same,MRT,in vivo; ip,58.3 min
same,Tmax,in vivo; ip,5 min
same,Vd,in vivo; ip,3.37 L/kg
same,clearance,in vivo; ip,39.5 mL/min/kg
same,half-life,in vivo; ip,42.5 min
same,Tmax,"in vivo; ip, Tmax (brain)",~60 min
same,AUC(0-inf),in vivo; iv,11800 ng·h/mL
same,AUC(0-t),in vivo; iv,10400 ng·h/mL
same,Kterm (plasma),in vivo; iv,0.012 (0.011 to 0.013) min^−1
same,MRT,in vivo; iv,57 min
same,T1/2 (plasma),in vivo; iv,59.2 (54.4 to 64.1) min
same,Vd,in vivo; iv,3.65 L/kg
same,clearance,in vivo; iv,42.7 mL/min/kg
same,half-life,in vivo; iv,59 min
same,Tmax,"in vivo; iv, Tmax (brain)",~60 min
same,bioavailability,[1]; po,~ 90%
same,time to peak plasma concentrations,[1]; po,2 to 4 h
same,terminal elimination half-life,[1],360 to 600 min
same,volume of distribution,[1],5.3 L/kg
same,Plasma protein binding,[2],around 13%
same,half-life,"[3]; rat, in vivo, iv, 4.5 mg/kg",402 min
same,half-life,"[3]; rats, intranasal, 20 mg/kg",67.9 min
